In patent US5486516A, “Furopyrimidine derivatives” (DowElanco, priority 1993, dated 1996):

How the values were obtained:
[1] = system: Pyricularia oryzae (rice blast); assay: whole plant or invertebrate; type: in vivo; conditions: foliar, read-out: RICE BLAST control rating
[2] = system: Southern corn rootworm (Diabrotica undecimpuctata howardi Barber); assay: Mite/insect screen, corn rootworm; type: in vivo; conditions: Diabrotica, soil, read-out: CRW results (percent mortality); for mortality at 12 ppm: CRW rate 12.00 ppm; for mortality at 24 ppm: CRW rate 24.00 ppm
Procedure, shortened: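 Compound in acetone/alcohol with emulsifiers, diluted with water; 1 mL applied to 15 g dry sandy soil holding a presoaked corn seed. After 6–12 h drying, five 2-3 instar larvae added, held at 23° C; percent mortality and phytotoxicity scored after standard exposure periods.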

[3] = system: southern armyworm (Spodopetra eridania Cramer); assay: Mite/insect screen, Southern armyworm; type: in vivo; conditions: Spodoptera eridania, sprayed leaves, read-out: SAW results (percent mortality); for mortality at 200 ppm: rate 200 ppm; for mortality at 400 ppm: rate 400 ppm
Procedure, shortened: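 Compounds in acetone/alcohol with Toximul emulsifiers, diluted in water, sprayed to runoff on squash leaves at 10 psi and dried 1 h. Excised treated leaves fed to southern armyworm larvae in Petri dishes; percent mortality scored after standard exposure.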

[4] = system: Twospotted spider mites (Tetranychus urticae Koch); assay: Mite/insect screen, twospotted spider mites; type: in vivo; conditions: Tetranychus urticae, sprayed leaves, read-out: SM results (percent mortality); for mortality at 200 ppm: rate 200 ppm; for mortality at 400 ppm: rate 400 ppm
Procedure, shortened: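 Squash cotyledons infested with mites were sprayed to runoff at 10 psi with compound in acetone/alcohol plus emulsifiers, diluted in water to the stated concentrations. Percent mortality and phytotoxicity were scored after standard exposure periods.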

[5] = system: melon aphids (Aphis gossvpii Glover); assay: Mite/insect screen, melon aphids; type: in vivo; conditions: Aphis, sprayed leaves, read-out: MA results (percent mortality); for mortality at 200 ppm: rate 200 ppm; for mortality at 400 ppm: rate 400 ppm
Procedure, shortened: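 Aphids established on squash cotyledons were sprayed to runoff with compound in acetone/alcohol with sulfonate/nonionic emulsifiers, diluted in water to test concentrations. Leaves dried 1 h. Percent mortality scored after standard exposure periods.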

[6] = system: Puccinia recondita tritici (leaf rust); assay: Plant pathology screen (Test 1), leaf rust on wheat; conditions: in Triticum aestivum, foliar, read-out: LEAF RUST control rating
Method: (§1) This screen was used to evaluate the efficacy of the present compounds against a variety of different organisms that cause plant diseases.
(§2) The test compounds were formulated for application by dissolving 50 mg of the compound into 1.25 ml of solvent. The solvent was prepared by mixing 50 ml of "Tween 20" (polyoxyethylene (20) sorbitan monolaurate emulsifier) with 475 ml of acetone and 475 ml of ethanol. The solvent/compound solution was diluted to 125 ml with deionized water. The resulting formulation contains 400 ppm test chemical. Lower concentrations were obtained by serial dilution with the solvent-surfactant mixture.
(§3) The formulated test compounds were applied by foliar spray.
(§4) The formulated technical compounds were sprayed on all foliar surfaces of the host plants (or cut berry) to past run-off. Single pots of each host plant were placed on raised, revolving pedestals in a fume hood. Test solutions were sprayed on all foliar surfaces. All treatments were allowed to dry and the plants were inoculated with the appropriate pathogens within 2-4 hours.
(§5) The effectiveness of test compounds in controlling disease was rated using the following scale.

[7] = system: Pseudoperonospora cubensis (downy mildew); assay: Plant pathology screen (Test 1), downy mildew on squash; conditions: foliar, read-out: DOWN MDEW control rating
Method: as §2
(§6) The formulated test compounds were applied by foliar spray. The following plant pathogens and their corresponding plants were employed.
as §4, §5

[8] = system: Erysiphe graminis tritici (powdery mildew); assay: Plant pathology screen (Test 1), powdery mildew on wheat; conditions: Blumeria graminis, in Triticum aestivum, foliar, read-out: POWD MDEW control rating
Method: as §2, §3, §4, §5

[9] = system: Botrytis cinerea (gray mold); assay: Plant pathology screen (Test 1), gray mold on grape berries; conditions: read-out: GRAY MOLD control rating
Method: as §1, §2, §6, §4, §5

Structure (SMILES)	pest or weed control at 400 µg/mL [1] [%]	mortality at 12 ppm [2] [%]	mortality at 24 ppm [2] [%]	mortality at 200 ppm [3] [%]	mortality at 400 ppm [3] [%]	mortality at 200 ppm [4] [%]	mortality at 400 ppm [4] [%]	mortality at 200 ppm [5] [%]	mortality at 400 ppm [5] [%]	pest or weed control at 400 µg/mL [6] [%]	pest or weed control at 400 µg/mL [7] [%]	pest or weed control at 400 µg/mL [8] [%]	pest or weed control at 400 µg/mL [9] [%]
Cc1oc2ncnc(Oc3cccc(C(F)(F)F)c3)c2c1C [Example 63, 5,6-dimethyl-4-[3-(trifluoromethyl)phenoxy]furo[2,3-d]pyrimidine]	0 to 19	0	0	0	0	0	50	0	80	0 to 19	20 to 89	0 to 19	0 to 19
Cc1oc2ncnc(Oc3ccccc3)c2c1C [Example 64, 5,6-dimethyl-4-phenoxyfuro[2,3-d]pyrimidine]	0 to 19	0	0	0	0	0	0	0	0	20 to 89	90 to 100	90 to 100	0 to 19
COc1ccc(Oc2ncnc3oc(C)c(C)c23)cc1 [Example 65, 5,6-dimethyl-4-(4-methoxyphenoxy)furo[2,3-d]pyrimidine]	0 to 19	0	0	0	0	0	0	0	0	0 to 19	0 to 19	20 to 89	0 to 19
Cc1oc2ncnc(Oc3ccccc3F)c2c1C [Example 66, 4-(2-fluorophenoxy)-5,6-dimethylfuro[2,3-d]pyrimidine]	0 to 19	0	0	0	0	0	0	0	0	20 to 89	90 to 100	90 to 100	0 to 19
Cc1oc2ncnc(OCC(C)c3ccc(CC(C)C)cc3)c2c1C (stereo not drawn) [Example 67, 4-[2-[4-(2,2-dimethylethyl)phenyl]-2-methylethoxy]5,6-dimethylfuro[2,3-d]pyrimidine]	90 to 100	0	0	0	0	100	100	100	100	20 to 89	20 to 89	20 to 89	20 to 89
Cc1oc2ncnc(NCCc3ccc(OC(F)(F)F)cc3)c2c1C [Example 68, 5,6-dimethyl-N-[2-[4-(trifluoromethoxy)phenyl]ethyl]furo[2,3-d]pyrimidin-4-amine]	90 to 100	–	0	–	100	–	30	–	90	20 to 89	90 to 100	20 to 89	0 to 19
Cc1oc2ncnc(OCCc3ccc(OC(F)(F)F)cc3)c2c1C [Example 69, 5,6-dimethyl-4-[2-[4-(trifluoromethoxy)phenyl]ethoxy]furo[2,3-d]pyrimidine]	20 to 89	–	0	–	0	–	90	–	90	20 to 89	0 to 19	90 to 100	0 to 19
Cc1oc2ncnc(OCCc3ccc4c(c3)OC(F)(F)O4)c2c1C [Example 70]	0 to 19	–	0	–	0	–	0	–	0	0 to 19	0 to 19	0 to 19	0 to 19
CCCCCCOc1ccc(CC(CNc2ncnc3oc(C)c(C)c23)c2cccc3ccccc23)cc1 (stereo not drawn) [Example 71, 5,6-dimethyl-N-[3-[4-(n-hexyloxy)phenyl]-2-(1-naphthyl)propyl]furo[2,3-d]pyrimidin-4-amine]	0 to 19	–	0	–	0	–	0	–	0	0 to 19	0 to 19	0 to 19	0 to 19
Cc1oc2ncnc(NCCC3=CCCCC3)c2c1C [Example 72, 5,6-dimethyl-N-[2-(1-cyclohexenyl)ethyl]furo[2,3-d]pyrimidin-4-amine]	0 to 19	–	0	–	60	–	0	–	100	90 to 100	90 to 100	20 to 89	0 to 19
Cc1oc2ncnc(NCCc3ccc(OCC(F)(F)F)cc3)c2c1C [Example 73, 5,6-dimethyl-N-[2-[4-(2,2,2-trifluoroethoxy)phenyl]ethyl]furo[2,3-d]pyrimidin-4-amine]	0 to 19	–	0	–	100	–	0	–	90	20 to 89	20 to 89	0 to 19	0 to 19
CCCC(C)(CC)Oc1ccc(CCOc2ncnc3oc(C)c(C)c23)cc1 (stereo not drawn) [Example 74, 5,6-dimethyl-4-[2-[4-(1-ethyl-1-methylbutoxy)phenyl]ethoxy]furo[2,3-d]pyrimidine]	0 to 19	–	0	–	0	–	100	–	90	0 to 19	20 to 89	0 to 19	0 to 19
Cc1oc2ncnc(OCCc3ccc4c(c3)OCCO4)c2c1C [Example 75, 5,6-dimethyl-4-[2-[benzo[b]-1,4-dioxan-6-yl]ethoxy]furo[2,3-d]pyrimidine]	0 to 19	–	0	–	40	–	0	–	0	0 to 19	20 to 89	0 to 19	0 to 19
Cc1oc2ncnc(OCCc3ccccc3C(F)(F)F)c2c1C [Example 76, 5,6-dimethyl-4-[2-[2(trifluoromethyl)phenyl]ethoxy]furo[2,3-d]pyrimidine]	0 to 19	–	60	–	0	–	0	–	0	0 to 19	20 to 89	90 to 100	0 to 19
Cc1oc2ncnc(NC(C)(C)Cc3ccccc3)c2c1C [Example 77, 5,6-dimethyl-N-[1,1-dimethyl-2-phenylethyl]furo[2,3-d]pyrimidin-4-amine]	90 to 100	0	0	0	0	50	90	100	80	90 to 100	90 to 100	90 to 100	0 to 19
